{"source": "patent US11370841B2", "about": "“Methods of treating fibroblast growth factor 19-mediated cancers and tumors” (NGM Biopharmaceuticals, Inc., priority 2016, dated 2022)", "key": {"[1]": {"system": "primary mouse hepatocytes", "assay": "In vitro pSTAT3 activation in primary mouse hepatocytes", "assay_type": "cell-based", "procedure": "Primary mouse hepatocytes were isolated from 8-10 week old wild type mice (BioReclamation/IVT). Cells were diluted in attachment media, and cells were plated on collagen-coated 6-well plate (Becton Dickinson). Four hours later, cells were changed into M199 media supplemented with 10% FBS, 2 mM glutamine, 100 unit/ml penicillin, 100 unit/ml streptomycin, and cultured for 16 hours at 37° C. When indicated, 50 ng/ml FGF19 protein or 50 ng/ml mouse IL-6 (Peprotech) were added.\n(§1) Cell extracts were prepared in 50 mM Tris-Cl, PH 7.2, 150 mM NaCl, 1% NP-40, 0.1% SDS, 0.5% sodium deoxycholate supplemented with a protease inhibitor cocktail (Roche) and phosphatase inhibitors (Sigma, phosphatase inhibitor cocktail set 2 and set 3), and protein concentrations were determined by BCA protein assay (Thermo Scientific).\nImmunoblotting. Cell or tissue lysates were mixed with 4×SDS sample loading buffer (50 mM Tris-Cl, pH6.8, 2.5% SDS, urea, 4% β-mercaptoethanol), heated for 10 minutes at 95° C., and separated on 4-20% SDS-polyacrylamide gels (Life Technologies) in 1×MOPS running buffer. Proteins were transferred onto PVDF membranes (GE Healthcare). Membranes were blocked in TBST buffer (20 mM Tris-Cl, pH 7.6, 137 mM NaCl, 0.1% Tween-20) containing 5% non-fat dry milk for 1 hour at room temperature, and incubated with anti-pSTAT3^Y705, anti-total STAT3, anti-pERK, anti-total ERK, or anti-β-actin antibodies in blocking buffer at 4° C. overnight. Membranes were washed in TBST extensively, and bound proteins were detected with horseradish peroxidase-conjugated goat-anti-mouse IgG or goat-anti-rabbit IgG antibodies (GE Healthcare) for 1 hour at room temperature. […]\nTo investigate an in vitro direct effect of FGF19 on STAT3 activation in isolated hepatocytes, pSTAT3^Y705 levels in primary cultures of hepatocytes upon FGF19 stimulation were analyzed by western blotting. […] Cell lysates were prepared at the indicated time points following FGF19 stimulation and analyzed for phosphorylation of the various proteins."}, "[2]": {"system": "primary human hepatocytes", "assay": "In vitro BrdU incorporation in primary human hepatocytes", "assay_type": "cell-based", "details": "purified primary human hepatocytes", "procedure": "(§2) FIGS. 2A-2E depict non-cell autonomous promotion of hepatocellular proliferation by FGF19. 11 week old mice (n=5 per group) were implanted with osmotic pumps releasing BrdU (8.5 mg/kg/day) and FGF19 protein (0.4 mg/kg/day). Livers were harvested 6 days post-implant. (FIG. 2A) Flow cytometry analysis of BrdU-labeled livers is shown. Representative histograms from hepatocytes stained with 7-ADD and anti-BrdU-APC are shown. (FIG. 2B) BrdU-positive hepatocytes as a percentage of total hepatocytes from vehicle (V)-treated (n=5) or FGF19-treated (n=5) mice were quantified by flow cytometry. (FIG. 2C) Shown are circulating FGF19 levels on day 6 post-implant of osmotic pumps. (FIG. 2D) Lack of proliferative effects of FGF19 on primary mouse hepatocytes. Primary cultures of hepatocytes isolated from mouse liver were incubated with recombinant FGF19 protein at the indicated concentrations for 48 hours and BrdU was added during the last 20 hours of incubation. BrdU incorporation was determined using a luminescence method. Mouse hepatocyte growth factor (mHGF) was included as a positive control. RLU, relative luminescence unit. (FIG. 2E) Lack of proliferative effects of FGF19 on primary human hepatocytes. Primary cultures of hepatocytes isolated from human liver were incubated with recombinant FGF19 protein. Human hepatocyte growth factor (hHGF) was included as a positive control. […]"}, "STAT3": {"system": "STAT3", "assay": "In vivo pSTAT3 activation, immunoblot of liver lysates", "details": "db/db mice, 1 mg/kg FGF19 i.p.", "procedure": "In vivo pSTAT3 activation.\nImmunoblotting. Cell or tissue lysates were mixed with 4×SDS sample loading buffer (50 mM Tris-Cl, pH6.8, 2.5% SDS, urea, 4% β-mercaptoethanol), heated for 10 minutes at 95° C., and separated on 4-20% SDS-polyacrylamide gels (Life Technologies) in 1×MOPS running buffer. Proteins were transferred onto PVDF membranes (GE Healthcare). Membranes were blocked in TBST buffer (20 mM Tris-Cl, pH 7.6, 137 mM NaCl, 0.1% Tween-20) containing 5% non-fat dry milk for 1 hour at room temperature, and incubated with anti-pSTAT3^Y705, anti-total STAT3, anti-pERK, anti-total ERK, or anti-β-actin antibodies in blocking buffer at 4° C. overnight. Membranes were washed in TBST extensively, and bound proteins were detected with horseradish peroxidase-conjugated goat-anti-mouse IgG or goat-anti-rabbit IgG antibodies (GE Healthcare) for 1 hour at room temperature. Signals were developed with SuperSignal West Dura extended duration substrate (Thermo Scientific), and captured with a ChemiDoc XrS+ imaging system (Bio-Rad).\nTo examine STAT3 activation following FGF19 treatment in vivo, 11 week old diabetic db/db mice (on BKS background) were administered with 1 mg/kg of recombinant FGF19 protein i.p., and livers were harvested after 2 hours. Phosphorylation of STAT3 at tyrosine residue 705 (pSTAT3^Y705) was evident by immunoblotting of liver lysates (FIG. 1A). […]"}, "[3]": {"system": "primary human hepatocytes", "assay": "In vitro pSTAT3 activation in primary human hepatocytes", "assay_type": "cell-based", "details": "purified primary human hepatocytes, 50 ng/ml", "procedure": "In vitro pSTAT3 activation. Primary human hepatocytes were isolated from consenting donors using a modified collagenase/pronase method (BioReclamation/IVT). Cells were diluted in attachment media (DMEM supplemented with 2 mM glutamine, 100 unit/ml penicillin, 100 unit/ml streptomycin, and 10% FBS), and cells were plated on collagen-coated 6-well plate (Becton Dickinson). Four hours later, cells were changed into William's E media containing dexamethasone/T3/insulin and cultured for 16 hours at 37° C. When indicated, 50 ng/ml FGF19 protein or 50 ng/ml human IL-6 (Peprotech) were added.\nas §1\nImmunoblotting. […] Membranes were washed in TBST extensively, and bound proteins were detected with horseradish peroxidase-conjugated goat-anti-mouse IgG or goat-anti-rabbit IgG antibodies (GE Healthcare) for 1 hour at room temperature. […]\nTo investigate an in vitro direct effect of FGF19 on STAT3 activation in isolated hepatocytes, pSTAT3^Y705 levels in primary cultures of hepatocytes upon FGF19 stimulation were analyzed by western blotting. […]"}, "[4]": {"system": "primary mouse hepatocytes", "assay": "In vitro BrdU incorporation in primary mouse hepatocytes", "assay_type": "cell-based", "details": "48 hours incubation", "procedure": "as §2"}}, "data": [{"substance": "FGF19: Fibroblast growth factor 19, mature human 194 amino acid polypeptide (SEQ ID NO: 1); recombinant protein or AAV-expressed", "values": [{"measurement": "STAT3 phosphorylation (pSTAT3 Y705) by western blotting", "setting": "[1]; isolated mouse hepatocytes, 50 ng/ml", "value": "did not enhance STAT3 phosphorylation"}, {"measurement": "Phosphorylation of ERK1 and ERK2", "setting": "[1]; primary cultures of mouse hepatocytes", "value": "apparent"}, {"measurement": "Proliferative effect (BrdU incorporation)", "setting": "[2]", "value": "lack of direct proliferative effect"}, {"measurement": "Phosphorylation of ERK1 and ERK2 in the liver", "setting": "STAT3; 2 hours", "value": "induced phosphorylation"}, {"measurement": "Phosphorylation of STAT3 at tyrosine residue 705 (pSTAT3 Y705) in liver lysates", "setting": "STAT3; livers harvested after 2 hours", "value": "evident"}, {"measurement": "STAT3 activation (pSTAT3 Y705)", "setting": "[3]", "value": "lack of STAT3 activation"}, {"measurement": "BrdU signal", "setting": "[4]", "value": "no increase"}]}]}
